# Assay results reported in patent US6194465A, “Benzamide therapeutics for the treatment of inflammatory bowel disease” (priority 1999, dated 2001).
# Legend:
# [1] = tested on: Myeloperoxidase (MPO) activity; experiment: MPO activity of colon tissue in TNBS model (IV dosing); type: in vivo, Male Sprague-Dawley rats
# Method: Male Sprague-Dawley rats (200-250 g) were housed in standard cages (2 per cage) and fed rat chow and tap water ad libitum. After an overnight fast, rats were brought into the laboratory and randomized into treatment groups. Colitis was induced by intrarectal administration of 0.5 ml of TNBS solution (50 mg/kg in 50% ethanol) using a 1 ml syringe attached to a 5 cm polyethylene catheter. Control animals received saline (0.9%) or a 1 % methyl cellulose suspension at identical time points.
# Myeloperoxidase ("MPO") activity is measured as an index of the intensity of the inflammatory response. In order to determine the MPO activity, a blind study of 300 mg samples of colon tissue were analyzed. This assay uses the spectrophotometric method of Castro et al.
# For PO (oral) dosing, Compound A was administered by oral gavage 30 mg/kg as a 1% carboxy methyl cellulose ("CMC") suspension 1 hour prior to the administration of TNBS. Control rats were given CMC only. For IV (intravenous) dosing, Compound A was administered 30 mg/kg by tail vein injection in a 75% PEG/25 % water solution 1 hour prior to administration of TNBS. Control rats were given an injection of 75% PEG/25 % water only. Six rats were dosed for each route of administration.
# MPO activity measurements were performed only for samples from the IV administration.
# [2] = tested on: adjuvant induced arthritis; experiment: Rat adjuvant induced arthritis model of chronic inflammation; type: in vivo; conditions: Compound A 100 mg/kg po or dexamethasone 0.1 mg/kg, daily 7 days, vs adjuvant
# Method: Confirmation of the anti-inflammatory activity of Compound A was sought in another related biological test-the rat adjuvant induced arthritis model of chronic inflammation. This model was selected because almost all of the anti-IBD agents also show efficacy in standard arthritis models. In this model Compound A was tested at 100 mg/kg, po in a 1 % methyl cellulose suspension. On day 0 all animals received an injection of either Mycobacterium butyricum (100μL, 20 mg/mL in mineral oil) or mineral oil in the base of the tail. 14 days after this injection, rat paws were measured and all the rats were randomized into 3 treatment groups of 8. A control adjuvant group (group without further treatment), a group to be treated with dexamethasone (steroid reference) and a group to treated with Compound A. Rats received Compound A 100 mg/kg, po, or dexamethasone 0.1 mg/kg, op, daily until day 21 (7 days dosing). On day 21 rats were sacrificed. Paw measurements were taken after 5 and 7 days treatment.
# DSS-induced colitis [3] = experiment: Mouse Dextran Sulfate (DSS) IBD model; type: in vivo, Swiss-Webster mice
# Method: Another model used for screening candidate IBD-treating compounds is the Dextran Sulfate ("DSS") model. Similar to the TNBS model, DSS induced colitis is widely used as a screening tool for IBD therapeutics. When administered orally, DSS induces IBD-like symptoms in Swiss-Webster mice. This model is used to determine the effectiveness of compounds of this invention when such compounds are administered orally (p.o.)
# Individually housed 30-40 g male Swiss-Webster mice (B & K Universal, Fremont, Calif.) received 3% DSS (Sigma Chemicals, St. Louis, Mo.) in their drinking water for 7 days. All animals received food and water ad libitum.
# Two groups of mice were dosed orally with either Compound A in a dosing vehicle (1% methyl cellulose, dose range of 10 mg/kg to 30 mg/kg) or dosing vehicle alone (control).
# Clinical signs of colitis were assessed by a disease activity index ("DAI") consisting of changes in stool characteristics, fecal occult bleeding and body weight loss. The DAI is very similar to the Crohn's Disease Activity Index used in clinical trials to evaluate new agents to prevent/treat IBD. The DAI data were analyzed using Proc Anova in SAS with a Bonferoni post-hoc analysis, and Model 108 in WinNonlin™ (Professional Version 1.5, Scientific Consulting, Apex, NC) for the ED50 and Emax values. The wet weight and myeloperoxidase ("MPO") data (collected only on Day 7) were analyzed by Proc TTest in SAS. MPO is a marker for neutrophil infiltration.
# Stool Characteristic: 0=normal, 2=loose and 4=diarrhea
# Fecal Occult Blood: 0=negative, 2=positive, 4=gross bleeding
# Two strips of colonic tissue/mouse
# MPO activity by spectrophotometric assay
# DSS-induced colitis [4] = experiment: Dose-response in the Mouse Dextran Sulfate (DSS) model; type: in vivo
# Method: To determine the dose-response relationship of Compound A in the DSS Mouse Model, the following procedure was used.
# Experimental conditions and statistical analyses were the same as the Mouse Dextran Sulfate IBD Model, except four groups of mice (n=8-10/group) were used. Animals were dosed orally with either Compound A (3, 10 or 30 mg/kg) or vehicle alone. In addition, the following procedure was introduced to evaluate the histology in the animals:
# 5-6 slices/segment with 15-18 total pieces/colon
# Score for extent of damage: 0=1-25% involvement, 1=26-50% involvement,
# 0=intact crypt, 1=loss of 1/3 crypt, 2=loss of 2/3 crypt, 3=loss of entire crypt with surface epithelium intact, 4=loss of entire crypt and erosion of surface epithelium
# 0=normal, 1=focal inflammatory cell infiltrate including PMNs, 2=inflammatory cell infiltration, gland dropout and crypt abscess, 3=mucosal ulceration
# Single, evaluator (qualified pathologist) blinded to the treatment conditions.
# bcl-2 = experiment: TNF-α induced reduction in bcl-2 (ELISA); type: cell-based; conditions: Compound A 100 μM (printed 100 EM); TNF-α 0.3 or 3.0
# Method: Cytokine mediated apoptosis or programmed cell death is believed to be involved in a number of diseases including IBD. Reductions in bcl-2 are a major signal in initiation of the apoptotic cascade (see Jourd'heuil et al., J. Clin Gastroenterol. 25(Suppl):S61-S72 (1997)). The purpose of this study is to investigate the effects of Compound A on bcl-2 protein levels in a cellular model of cytokine mediated apoptosis.
# SK-N-MC cells (American Type Culture Collection, Rockville, Md.) were plated at 500,000 cells/plate and treated with retinoic acid ("RA") (5 μM) for 5 days. Following RA treatment, the cells were incubated with Compound A (100 μM) for 1 hour. Cells were then treated with increasing concentrations of TNF-α (0, 0.3 and 3 ng/mL) for 6 h. The cells were harvested and lysed and bcl-2 was measured in the lysate using an ELISA assay (Boehringer Manheim). Quantification of bcl-2 was based on a standard curve and results are expressed as units/mL of bcl-2 in the sample. Results represent mean ±SE for 3 separate cultures.
compound,measurement,setting,value
"CC(=O)Nc1ccc(C(=O)NC(C)(C)C)cc1 [Compound A, N-tert-butyl-4-acetamidobenzamide]",protection from TNBS insult as measured by MPO activity (in words),[1]; IV,provided protection from the TNBS insult
same,MPO Activity,"[1]; IV treatment, 30 mg/kg, TNBS model",1.77 ± 0.53 units/mg
same,inhibition of the inflammatory response,[2],significant inhibition of the inflammatory response (p<0.005)
same,MPO values (in words),DSS-induced colitis [3]; Day 7,the protection was not statistically significant
same,wet weight (in words),DSS-induced colitis [3]; Day 7,the protection was not statistically significant
same,protective effect against DSS-induced colitis,"DSS-induced colitis [3]; oral, 10 mg/kg to 30 mg/kg",showed protective effect against DSS-induced colitis
same,significance of protective effect by day,"DSS-induced colitis [3]; oral, 10 mg/kg to 30 mg/kg","statistically significant on days 3, 4, 5 and 7"
same,estimated ED50,"DSS-induced colitis [3]; oral, DSS model, WinNonlin",approximately 15 mg/kg
same,estimated Emax,"DSS-induced colitis [3]; oral, DSS model, WinNonlin",~80 % protection
same,"protective effect, significance by day",DSS-induced colitis [4]; oral,"statistically significant on days 3, 4, 5 and 7"
same,"DAI score, protective effect (in words)","DSS-induced colitis [4]; oral, 3, 10 or 30 mg/kg",marked dose-dependent protective effect
same,"DAI score, significance by dose","DSS-induced colitis [4]; oral, 3, 10 or 30 mg/kg",statistically significant at 30 mg/kg
same,"MPO values (in words), dose-response study","DSS-induced colitis [4]; oral, 3, 10 or 30 mg/kg",the protection was not statistically significant
same,"wet weight (in words), dose-response study","DSS-induced colitis [4]; oral, 3, 10 or 30 mg/kg",the protection was not statistically significant
same,bcl-2 reduction induced by TNF-α,bcl-2,prevented bcl-2 reduction
